Measurements as given in patent US8952024B2, “Herbicidal pyrimidone derivatives” (E I du Pont de Nemours and Company, priority 2009, dated 2015).

What was measured:
Type in all cases: in vivo
[1] = tested on: canarygrass (Phalaris minor); test: Test B postemergence plant response
Method in brief: (§1)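 Plants at the 1- to 4-leaf stage (2 to 18 cm tall), grown in pots of peat moss/vermiculite medium with wetting agent and starter nutrients, received postemergence applications of test chemicals. After 13 to 15 days in a greenhouse, injury was rated visually against untreated controls on a 0 (no effect) to 100 (complete control) scale.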

[2] = tested on: windgrass (Apera spica-venti); test: Test B postemergence plant response
Method in brief: as §1

[3] = tested on: chickweed (Stellaria media); test: Test B postemergence plant response
Method in brief: as §1

[4] = tested on: cocklebur (Xanthium strumarium); test: Test B pre-/postemergence plant response
Method in brief: (§2)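 Greenhouse herbicide screen. Pre- and postemergence (1- to 4-leaf) spray of compound in solvent/surfactant mixture; loam–sand soil for pre, peat/vermiculite medium for post. Visual control rating 0–100 at 13 to 15 days after treatment.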

[5] = tested on: lambsquarters (Chenopodium album); test: Test B pre-/postemergence plant response
Method in brief: as §2

[6] = tested on: blackgrass (Alopecurus myosuroides); test: Test B pre-/postemergence plant response
Method in brief: as §2

wild oat (Avena fatua) = test: Test B pre-/postemergence plant response
Method in brief: as §2

soybean (Glycine max) = test: Test B pre-/postemergence plant response
Method in brief: as §2

kochia (Kochia scoparia) = test: Test B pre-/postemergence plant response
Method in brief: as §2

[7] = tested on: velvetleaf (Abutilon theophrasti); test: Test B pre-/postemergence plant response
Method in brief: as §2

[8] = tested on: wheat (Triticum aestivum); test: Test B pre-/postemergence plant response
Method in brief: as §2

[9] = tested on: Surinam grass (Brachiaria decumbens); test: Test B pre-/postemergence plant response
Method in brief: as §2

[10] = tested on: pigweed (Amaranthus retroflexus); test: Test B pre-/postemergence plant response
Method in brief: as §2

[11] = 31 g ai/ha, postemergence, scale 0 to 100, 0 is no effect, 100 is complete control
[12] = 62 g ai/ha, postemergence, 0 is no effect, 100 is complete control, 13 to 15 days
[13] = Postemergence, 125 g ai/ha, visual rating after 13 to 15 days, scale 0 (no effect) to 100 (complete control)
[14] = Postemergence, 250 g ai/ha, scale 0 to 100 (0 no effect, 100 complete control)
[15] = Preemergence, 31 g ai/ha, scale 0 to 100 (0 no effect, 100 complete control)
[16] = Preemergence, 62 g ai/ha, scale 0 to 100 (0 no effect, 100 complete control)
[17] = Preemergence, 125 g ai/ha, scale 0 to 100, 0 no effect, 100 complete control
[18] = Preemergence, 250 g ai/ha, 0 to 100 scale
[19] = Postemergence, 31 g ai/ha, 0 to 100 scale (0 no effect, 100 complete control)
[20] = Postemergence, 62 g ai/ha, scale 0 to 100 (0 no effect, 100 complete control)
[21] = Postemergence, 125 g ai/ha, scale 0 to 100 (0 no effect, 100 complete control)
[22] = Postemergence, 250 g ai/ha, scale 0 to 100 (0 no effect, 100 complete control), 13 to 15 days
[23] = 16 g ai/ha, Postemergence, 0 to 100 scale

CCCn1c(-c2cccs2)ncc(C(=O)C2=C(O)CCCC2=O)c1=O [Compound 77]
Plant response rating, Canarygrass [1, 11]: 0
Canarygrass plant response rating (0 to 100 scale) [1, 12]: 0
Plant response rating, Canarygrass [1, 13]: 0
Plant response rating, Canarygrass [1, 14]: 0
Plant response rating, Windgrass [2, 11]: 10
Windgrass plant response rating (0 to 100 scale) [2, 12]: 10
Plant response rating, Windgrass [2, 13]: 20
Plant response rating, Windgrass [2, 14]: 25
Plant response rating, Chickweed [3, 11]: 80
Chickweed plant response rating (0 to 100 scale) [3, 12]: 85
Plant response rating, Chickweed [3, 13]: 95
Plant response rating, Chickweed [3, 14]: 98
Plant response rating, Cocklebur [4, 11]: 0
Cocklebur plant response rating (0 to 100 scale) [4, 12]: 0
Plant response rating, Cocklebur [4, 13]: 60
Plant response rating, Cocklebur [4, 14]: 85
Plant response rating, Cocklebur [4, 15]: 0
Plant response rating, Cocklebur [4, 16]: 0
Plant response rating, Cocklebur [4, 17]: 10
Cocklebur plant response rating [4, 18]: 65
Plant response rating, Lambsquarters [5, 11]: 95
Lambsquarters plant response rating (0 to 100 scale) [5, 12]: 98
Plant response rating, Lambsquarters [5, 13]: 98
Plant response rating, Lambsquarters [5, 14]: 98
Plant response rating, Lambsquarters [5, 15]: 98
Plant response rating, Lambsquarters [5, 16]: 98
Plant response rating, Lambsquarters [5, 17]: 100
Lambsquarters plant response rating [5, 18]: 100
Plant response rating, Blackgrass [6, 11]: 0
Blackgrass plant response rating (0 to 100 scale) [6, 12]: 0
Plant response rating, Blackgrass [6, 13]: 0
Plant response rating, Blackgrass [6, 14]: 5
Plant response rating, Blackgrass [6, 15]: 0
Plant response rating, Blackgrass [6, 16]: 0
Plant response rating, Blackgrass [6, 17]: 0
Blackgrass plant response rating [6, 18]: 0
Plant response rating, Oat, Wild (wild oat (Avena fatua); [11]): 0
Oat, Wild plant response rating (0 to 100 scale) (wild oat (Avena fatua); [12]): 5
Plant response rating, Oat, Wild (wild oat (Avena fatua); [13]): 5
Plant response rating, Oat, Wild (wild oat (Avena fatua); [14]): 5
Plant response rating, Oat, Wild (wild oat (Avena fatua); [15]): 0
Plant response rating, Oat, Wild (wild oat (Avena fatua); [16]): 0
Plant response rating, Oat, Wild (wild oat (Avena fatua); [17]): 0
Oat, Wild plant response rating (wild oat (Avena fatua); [18]): 0
Plant response rating, Soybean (soybean (Glycine max); [11]): 25
Soybean plant response rating (0 to 100 scale) (soybean (Glycine max); [12]): 50
Plant response rating, Soybean (soybean (Glycine max); [13]): 70
Plant response rating, Soybean (soybean (Glycine max); [14]): 70
Plant response rating, Kochia (kochia (Kochia scoparia); [11]): 75
Kochia plant response rating (0 to 100 scale) (kochia (Kochia scoparia); [12]): 80
Plant response rating, Kochia (kochia (Kochia scoparia); [13]): 95
Plant response rating, Kochia (kochia (Kochia scoparia); [14]): 95
Plant response rating, Kochia (kochia (Kochia scoparia); [15]): 85
Plant response rating, Kochia (kochia (Kochia scoparia); [16]): 90
Plant response rating, Kochia (kochia (Kochia scoparia); [17]): 90
Kochia plant response rating (kochia (Kochia scoparia); [18]): 95
Plant response rating, Velvetleaf [7, 11]: 90
Velvetleaf plant response rating (0 to 100 scale) [7, 12]: 98
Plant response rating, Velvetleaf [7, 13]: 98
Plant response rating, Velvetleaf [7, 14]: 100
Plant response rating, Velvetleaf [7, 15]: 95
Plant response rating, Velvetleaf [7, 16]: 100
Plant response rating, Velvetleaf [7, 17]: 100
Velvetleaf plant response rating [7, 18]: 100
Plant response rating, Wheat [8, 11]: 0
Wheat plant response rating (0 to 100 scale) [8, 12]: 5
Plant response rating, Wheat [8, 13]: 10
Plant response rating, Wheat [8, 14]: 10
Plant response rating, Wheat [8, 15]: 0
Plant response rating, Wheat [8, 16]: 0
Plant response rating, Wheat [8, 17]: 0
Wheat plant response rating [8, 18]: 0
Plant response rating, Surinam Grass [9, 11]: 65
Surinam Grass plant response rating (0 to 100 scale) [9, 12]: 65
Plant response rating, Surinam Grass [9, 13]: 75
Plant response rating, Surinam Grass [9, 14]: 80
Plant response rating, Surinam Grass [9, 15]: 0
Plant response rating, Surinam Grass [9, 16]: 20
Plant response rating, Surinam Grass [9, 17]: 75
Surinam Grass plant response rating [9, 18]: 100
Plant response rating, Pigweed [10, 11]: 98
Pigweed plant response rating (0 to 100 scale) [10, 12]: 98
Plant response rating, Pigweed [10, 13]: 100
Plant response rating, Pigweed [10, 14]: 100
Plant response rating, Pigweed [10, 15]: 100
Plant response rating, Pigweed [10, 16]: 100
Plant response rating, Pigweed [10, 17]: 100
Pigweed plant response rating [10, 18]: 100

COCCn1c(-c2cccc(C)c2)ncc(C(=O)C2=C(O)C3CCC(C3)C2=O)c1=O (stereo not shown) [Compound 233]
Plant response rating, Canarygrass [1, 19]: 0
Plant response rating, Canarygrass [1, 20]: 5
Plant response rating, Canarygrass [1, 21]: 10
Plant response rating, Canarygrass [1, 22]: 20
Plant response rating, Windgrass [2, 19]: 50
Plant response rating, Windgrass [2, 20]: 55
Plant response rating, Windgrass [2, 22]: 60
Plant response rating, Chickweed [3, 19]: 90
Plant response rating, Chickweed [3, 20]: 95
Plant response rating, Chickweed [3, 21]: 100
Plant response rating, Chickweed [3, 22]: 100
Plant response rating, Cocklebur [4, 19]: 90
Plant response rating, Cocklebur [4, 20]: 100
Plant response rating, Cocklebur [4, 21]: 100
Plant response rating, Cocklebur [4, 22]: 100
Plant response rating, Lambsquarters [5, 19]: 98
Plant response rating, Lambsquarters [5, 20]: 98
Plant response rating, Lambsquarters [5, 21]: 100
Plant response rating, Lambsquarters [5, 22]: 100
Plant response rating, Blackgrass [6, 19]: 5
Plant response rating, Blackgrass [6, 20]: 30
Plant response rating, Blackgrass [6, 21]: 30
Plant response rating, Blackgrass [6, 22]: 50
Plant response rating, Oat, Wild (wild oat (Avena fatua); [19]): 30
Plant response rating, Oat, Wild (wild oat (Avena fatua); [20]): 35
Plant response rating, Oat, Wild (wild oat (Avena fatua); [22]): 60
Plant response rating, Soybean (soybean (Glycine max); [19]): 98
Plant response rating, Soybean (soybean (Glycine max); [20]): 98
Plant response rating, Soybean (soybean (Glycine max); [22]): 100
Plant response rating, Kochia (kochia (Kochia scoparia); [19]): 70
Plant response rating, Kochia (kochia (Kochia scoparia); [20]): 85
Plant response rating, Velvetleaf [7, 19]: 80
Plant response rating, Velvetleaf [7, 20]: 85
Plant response rating, Velvetleaf [7, 22]: 100
Plant response rating, Wheat [8, 19]: 10
Plant response rating, Wheat [8, 20]: 30
Plant response rating, Wheat [8, 22]: 65
Plant response rating, Surinam Grass [9, 19]: 80
Plant response rating, Surinam Grass [9, 20]: 85
Plant response rating, Surinam Grass [9, 22]: 100
Plant response rating, Pigweed [10, 19]: 85
Plant response rating, Pigweed [10, 20]: 98

CC1(C)CC(=O)C(C(=O)c2cnc(-c3ccccc3)n(-c3ccccc3)c2=O)=C(O)C1 [Compound 225]
Plant response rating, Canarygrass [1, 23]: 55
Plant response rating, Canarygrass [1, 19]: 60
Plant response rating, Canarygrass [1, 20]: 85
Plant response rating, Canarygrass [1, 21]: 85
Plant response rating, Windgrass [2, 23]: 5
Plant response rating, Windgrass [2, 19]: 50
Plant response rating, Windgrass [2, 20]: 55
Plant response rating, Chickweed [3, 23]: 15
Plant response rating, Chickweed [3, 19]: 25
Plant response rating, Chickweed [3, 20]: 40
Plant response rating, Chickweed [3, 21]: 95
Plant response rating, Cocklebur [4, 23]: 85
Plant response rating, Cocklebur [4, 19]: 98
Plant response rating, Cocklebur [4, 20]: 100
Plant response rating, Cocklebur [4, 21]: 100
Plant response rating, Lambsquarters [5, 23]: 85
Plant response rating, Lambsquarters [5, 19]: 85
Plant response rating, Lambsquarters [5, 20]: 85
Plant response rating, Lambsquarters [5, 21]: 98
Plant response rating, Blackgrass [6, 23]: 0
Plant response rating, Blackgrass [6, 19]: 0
Plant response rating, Blackgrass [6, 20]: 5
Plant response rating, Blackgrass [6, 21]: 15
Plant response rating, Oat, Wild (wild oat (Avena fatua); [23]): 25
Plant response rating, Oat, Wild (wild oat (Avena fatua); [19]): 45
Plant response rating, Oat, Wild (wild oat (Avena fatua); [20]): 50
Plant response rating, Soybean (soybean (Glycine max); [23]): 65
Plant response rating, Soybean (soybean (Glycine max); [19]): 85
Plant response rating, Soybean (soybean (Glycine max); [20]): 95
Plant response rating, Kochia (kochia (Kochia scoparia); [23]): 5
Plant response rating, Kochia (kochia (Kochia scoparia); [19]): 5
Plant response rating, Kochia (kochia (Kochia scoparia); [20]): 10
Plant response rating, Kochia (kochia (Kochia scoparia); [21]): 15
Plant response rating, Velvetleaf [7, 23]: 80
Plant response rating, Velvetleaf [7, 19]: 80
Plant response rating, Velvetleaf [7, 20]: 90
Plant response rating, Wheat [8, 23]: 20
Plant response rating, Wheat [8, 19]: 30
Plant response rating, Wheat [8, 20]: 40
Plant response rating, Surinam Grass [9, 23]: 35
Plant response rating, Surinam Grass [9, 19]: 75
Plant response rating, Surinam Grass [9, 20]: 75
Plant response rating, Pigweed [10, 23]: 80
Plant response rating, Pigweed [10, 19]: 90
Plant response rating, Pigweed [10, 20]: 95
